The source of these data is patent EP2386565A2, “Compounds and methods to inhibit or augment an inflammatory response” (Cambridge Enterprise Ltd., priority 1999, dated 2000).

For assay [1], the system named is MCP-1 induced THP-1 migration. Nature of the assay: THP-1 trans-well migration assay, MCP-1 as chemoattractant. Particulars: for ED50 (µM) versus MCP-1: inhibition of THP-1 migration, n.s./ns = not statistically significant; for % inhibition at 100 µM versus MCP-1: THP-1 migration, agent at 100 µM with the cells, n.s. or dash = no statistically significant inhibition; for ED50 v MCP-1: MCP-1 induced chemotaxis of THP-1 cells. The class given is cell-based, human. As for the experimental part:
(§1) To determine whether an agent inhibits a chemokine-induced activity, such as macrophage recruitment, varying amounts of the agent are mixed with cells in the presence of a known chemoattractant. For example, a range of known concentrations of an agent, e.g., a chemokine peptide, is incubated with a defined number (e.g., 10^4 - […]) of human THP-1 monocyte cells in individual wells of the top compartment of a trans-well plate. Chemokine (such as MCP-1, MIP1α, IL8 or SDF-1α), at a concentration known to cause significant migration of THP-1 cells in the trans-well migration assay, is placed in the lower compartment (Figure 1). Cells are then incubated at 37°C for a period sufficient to allow migration, e.g., 4 hours. After incubation, the cells are gently removed from the top of the filter with a pipette, 20 µl of 20 mM EDTA in simple PBS is added into each top well, and incubated for 20 minutes at 4°C. The filter is carefully flushed with media using a gentle flow, and removed. A standard curve consisting of a two-fold dilution series of THP-1 cells (in 29 µl) is prepared to accurately quantify the number of cells that have migrated. Migrated cells are stained with 3 µl of MTT stock dye solution which is added directly into each well (5 mg/ml in RPMI-1640 without phenol red, Sigma Chemical Co.) and incubated at 37°C for 4 hours. The media is carefully aspirated from each well, and the converted dye is solubilized by 20 µl of DMSO. Absorbance of converted dye is measured at a wavelength of 595 nm using an ELISA plate reader. The number of migrated cells in each well is then determined by interpolation of the standard curve (see also Imai et al.,J. Biol. Chem., 272, 15036 (1997)).
Any method suitable for counting cells can be used, for example, counting with a hemocytometer, incubation of the cells with MTT (see above), or FACS analysis. A negative control assay is also performed, using TGF-β or another non-chemokine chemoattractant (e.g., IL1β or TNFα). To assess whether the agent is cytotoxic, the same concentrations of agent are incubated with THP-1 cells. Agents which 1) are not cytotoxic at levels which inhibit migration, 2) are ineffective at inhibiting the negative control-induced migration, and 3) reduce or inhibit chemokine-induced THP-1 migration, are agents which fall within the scope of the invention.
For this assay, THP-1 cells were maintained at a density of 4 × 10^5 cells per ml in RPMI-1640 supplemented with 10% fetal calf serum + 20 µM 2-mercaptoethanol. Chemotaxis was induced in a 96-well disposable chemotaxis chamber fitted with a 5 µM polycarbonate filter (PVP free, ChemoTX, Neuroprobe Inc., Cabin John). […] The framed filter was aligned with the holes in the corner of the filter frame and placed over the wells.
(§2) Five × 10^4 THP-1 cells in 25 µl of RPMI-1640 were added to the upper compartment. Peptides were dissolved in Milli Q water and then serially diluted in culture medium. In most cases, the serially diluted peptides were added to the upper compartment of the chemotaxis chamber. The chamber was incubated at 37°C in a humidified atmosphere of 5% CO2 for 4 hours.
After incubation, the cells were gently removed from the top of the filter with a pipette, 20 µl of 20 mM EDTA in PBS was added into each top well, and the mixture was incubated for 20 minutes at 4°C. The filter was then carefully flushed with media using a gentle flow, and removed. A standard curve was prepared to accurately quantify the number of THP-1 cells that had migrated. The curve was based on a two-fold dilution series of THP-1 cells (top standard 100,000 cells in 29 µl). Cells which had migrated, and in separate wells, the cells in the standards, were stained with 3 µl of MTT stock solution which was added directly into each well (5 mg/ml in RPMI 1640 without phenol red, Sigma Chemical Co.) and incubated at 37°C for 4 hours. The media was carefully aspirated from each well, and the converted dye was solubilized by 20 µl of DMSO. […]

Assay [2] concerns MIP1α induced THP-1 migration. The assay can be described thus: THP-1 trans-well migration assay, MIP1α as chemoattractant. The class given is cell-based, human. The settings on record: for ED50 (µM) versus MIP1α: inhibition of THP-1 migration, n.s./ns = not statistically significant. As for the experimental part: as §1
(§3) For this assay, THP-1 cells were maintained at a density of 4 × 10^5 cells per ml in RPMI-1640 supplemented with 10% fetal calf serum + 20 µM 2-mercaptoethanol. Chemotaxis was induced in a 96-well disposable chemotaxis chamber fitted with a 5 µM polycarbonate filter (PVP free, ChemoTX, Neuroprobe Inc., Cabin John). Twenty-nine µl of chemoattractant (recombinant human chemokine; 50 ng/ml, i.e., 5.9 nM) or control (100 ng/ml TGFβ) was added to the lower compartment of each well. The framed filter was aligned with the holes in the corner of the filter frame and placed over the wells.
as §2
(§4) After incubation, the cells were gently removed from the top of the filter with a pipette, 20 µl of 20 mM EDTA in PBS was added into each top well, and the mixture was incubated for 20 minutes at 4°C. The filter was then carefully flushed with media using a gentle flow, and removed. A standard curve was prepared to accurately quantify the number of THP-1 cells that had migrated. The curve was based on a two-fold dilution series of THP-1 cells (top standard 100,000 cells in 29 µl). Cells which had migrated, and in separate wells, the cells in the standards, were stained with 3 µl of MTT stock solution which was added directly into each well (5 mg/ml in RPMI 1640 without phenol red, Sigma Chemical Co.) and incubated at 37°C for 4 hours. The media was carefully aspirated from each well, and the converted dye was solubilized by 20 µl of DMSO. Absorbance of converted dye was measured at a wavelength of 595 nm using an ELISA plate reader. The number of cells that had migrated in each well was determined by interpolation of the standard curve.
(§5) To investigate the receptor specificity of peptide 3 inhibition, the ED50 was determined for peptide 3(1-12)[MCP-1] (SEQ ID NO:1) inhibition of THP-1 migration induced by chemokines which signal through different receptors than MCP-1 receptors. […]

The subject of assay [3] is SDF-1α induced THP-1 migration. Nature of the assay: THP-1 trans-well migration assay, SDF-1α as chemoattractant. The class given is cell-based, human. The settings on record: for ED50 (µM) versus SDF-1α: inhibition of THP-1 migration, n.s./ns = not statistically significant. As for the experimental part:
as §1, §3, §2, §4, §5

Assay [4] addresses T1, Duffy Antigen Receptor for Chemokines (DARC) (Homo sapiens, UniProt Q16570).
T1 sequence (Q16570 1-336): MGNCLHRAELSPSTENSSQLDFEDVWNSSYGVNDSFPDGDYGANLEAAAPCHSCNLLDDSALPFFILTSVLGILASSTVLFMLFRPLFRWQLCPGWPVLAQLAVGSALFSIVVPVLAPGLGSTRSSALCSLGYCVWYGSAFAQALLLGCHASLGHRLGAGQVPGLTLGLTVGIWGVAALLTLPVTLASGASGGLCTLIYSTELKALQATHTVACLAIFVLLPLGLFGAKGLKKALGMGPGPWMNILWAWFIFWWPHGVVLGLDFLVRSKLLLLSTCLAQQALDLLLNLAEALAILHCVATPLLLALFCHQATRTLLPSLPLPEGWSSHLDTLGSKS
The assay can be described thus: DARC binding: competition with 125I-MCP-1 on red blood cells. The settings on record: for DARC binding (µM): ns = not significantly different from control, >100 = not determined.

[5] abbreviates: THP-1 migration, agent at 100 µM, n.s. or dash = no statistically significant inhibition.

Positions of bridges follow the written chain, without caps; N, C: chain ends. Non-standard residues stand in square brackets, D forms with d. Residues, ends and D or L forms follow the SMILES beside them. No end group written: not given here.

With CSYRRITSSKSPKEAVC, the “ED50 (µM) versus MCP-1” value in assay [1] is given as “ns”. Further, the “ED50 (µM) versus MIP1α” value in assay [2] is reported as “ns”. Besides, the “ED50 (µM) versus SDF-1α” value in assay [3] is reported as “ns”. Besides, the “DARC binding (µM)” value in assay [4] is “ns”.

Consider “=cvaekpsksstirrysc= ([dC][dV][dA][dE][dK][dP][dS][dK][dS][dS][dT][dI][dR][dR][dY][dS][dC]; bridge 1-17 (inferred); not fully specified; printed as =cvaekpsksstirrysc=)”, for which the “ED50 (µM) versus MCP-1” value in assay [1] is given as “ns”. The “ED50 (µM) versus MIP1α” value in assay [2] is on record as “ns”. The “ED50 (µM) versus SDF-1α” value in assay [3] is recorded as “ns”. For the same molecule, in assay [4], the “DARC binding (µM)” value was “ns”.

Regarding `CC[C@H](C)[C@H](NC(=O)[C@H](C)NC(=O)[C@H](CC(=O)O)NC(=O)[C@@H]1CCCN1C(=O)[C@H](CCC(N)=O)NC(=O)[C@H](C)N)C(=O)N[C@@H](CC(N)=O)C(=O)N[C@@H](C)C(=O)N1CCC[C@H]1C(=O)N[C@H](C(=O)N[C@H](C(=O)N[C@@H](CS)C(=O)N[C@@H](CS)C(=O)O)[C@@H](C)O)C(C)C` [Peptide 1] (H-AQPDAINAPVTCC-OH; N-terminus and C-terminus assumed), the “% inhibition at 100 µM versus MCP-1” value in assay [1] is “n.s.^b”; in assay [1] (listed as Peptide 1[MCP-1]) it was 10%; in assay [1] (listed as peptide 1[MCP-1]) it was 10%. The “ED50 (µM) versus MCP-1” value in assay [1] is “n.s.^b”; in assay [1] (listed as Peptide 1[MCP-1]) it was greater than 100 µM. Also, the “% inhibition of the MCP-1 induced migration at 100 µM” value in assay [1] (peptide introduced with the chemokine in the lower compartment) is 48%. Also, the “% inhibition at 100 µM versus MIP1α” value in assay [2] (setting [5]) was “n.s.^b”. In addition, the “ED50 (µM) versus MIP1α” value in assay [2] is recorded as “n.s.^b”. The “% inhibition at 100 µM versus SDF-1α” value in assay [3] (setting [5]) is recorded as “n.s”. The “ED50 (µM) versus SDF-1α” value in assay [3] was “n.s”.

As to `CC[C@@H](C)[C@H]1NC(=O)[C@@H](CCC(N)=O)NC(=O)[C@H](N)CSSC[C@H](C(N)=O)NC(=O)[C@@H](CC(C)C)NC(=O)[C@@H](CC(=O)O)NC(=O)[C@H]2CCCN2C(=O)[C@@H](CCCCN)NC(=O)[C@@H](CCC(N)=O)NC(=O)[C@@H](CCCCN)NC(=O)[C@@H](Cc2c[nH]c3ccccc23)NC1=O` (H-[dC][dQ][dI][dW][dK][dQ][dK][dP][dD][dL][dC]-NH2; disulfide 1-11), the “potency as inhibitor of THP-1 migration induced by MCP-1 relative to the D-ala derivative” value in assay [1] is listed as 1000 fold. Further, the “ED50 v MCP-1” value in assay [1] (listed as CRD-Cys13Leu4Ile11peptide 3(3-12)[MCP-1]) is 0.001 to 0.01 µM; in assay [1] (listed as NR58-3.14.3) it was 0.01 µM. In addition, in assay [4] (estimated ka for binding to red blood cells divided by average inhibitory ED50), the “Duffy selectivity / DARC specificity ratio” value is reported as greater than 100.
